Test results reported in patent US10405750B2, “Nonradiative voltage-sensitive dye for imaging neuronal action potential” (Washington University, priority 2014, dated 2019).

Legend:
[1] = commercially available dyes to be tested; cited from earlier work

Structure (SMILES)	Abs.: peak absorption wavelength [1] [nm]	also measured
Nc1ccncc1 [4-AP, 4-am inopyridine]		PA waveforms (DPA-stained cortex) after 4-AP (mouse brains; mouse, in vivo): large-amplitude high-frequency waveforms consistent with epileptiform discharges; behavioural effect in mice (mouse brains; mouse, in vivo): signs of convulsions
CCN(CC)c1ccc2cc(/C=C/c3cc[n+](CC[N+](C)(C)C)cc3)ccc2c1.[Br-].[Br-] [Di-2-ANEPEQ]	517	
CCCCCCCCCCCCN(CCCCCCCCCCCC)c1ccc2cc(/C=C/c3cc[n+](CCC[N+](C)(C)C)cc3)ccc2c1.[Br-].[Br-] [Di-12-ANEPPQ]	519	
CCCCN1C(=O)/C(=C/C=C/C=C2/C=CN(CCCCS(=O)(=O)[O-])c3ccccc32)SC1=S.[Na+] [NK 2761]	716	
CCCCN(CCCC)c1ccc(/C=C/C=C/c2cc[n+](CCCCS(=O)(=O)[O-])cc2)cc1 [RH 160]	530	
CCCCN(CCCC)c1ccc(/C=C/C=C/C=C/c2cc[n+](CCCCS(=O)(=O)[O-])cc2)cc1 [RH 237]	528	
CCN(CC)c1ccc(/C=C/C=C/c2cc[n+](CCC[N+](CC)(CC)CC)cc2)cc1.[Br-].[Br-] [RH 414]	532	
CCN(CC)c1ccc(/C=C/C=C/c2cc[n+](CC(O)C[N+](C)(C)CCO)cc2)cc1.[Br-].[Br-] (stereo not shown) [RH 795]	530	
FC(F)OC(Cl)C(F)(F)F (stereo not shown) [isoflurane]		PA signal (DPA-stained cortex) after prolonged isoflurane (mouse brains; 5% isoflurane, prolonged exposure (30 minutes), after 4-AP): suppression of photoacoustic signal change
